From ChEMBL document CHEMBL5303573, “Mapping human microbiome drug metabolism by gut bacteria and their genes” (Nature, 2019)

What was measured:
[1] = The drug is tested on Clostridium hathewayi strain: DSM13479 for biotransformation. The drug concentrations were measured before and after a 12-h incubation by liquid-chromatography-coupled mass spectrometry (LC–MS); details: hungatella hathewayi, 2 µM
[2] = molecular target: T1, 3-oxo-5-alpha-steroid 4-dehydrogenase (Bacteroides thetaiotaomicron, UniProt Q8A618); experiment: (§1) The drug is tested on Bacteroides thetaiotaomicron strain: VPI-5482 for biotransformation. The drug concentrations were measured before and after a 12-h incubation by liquid-chromatography-coupled mass spectrometry (LC–MS); format: ADME; parameters: dose 2 uM; details: 2 µM
T1 sequence (Q8A618 whole entry): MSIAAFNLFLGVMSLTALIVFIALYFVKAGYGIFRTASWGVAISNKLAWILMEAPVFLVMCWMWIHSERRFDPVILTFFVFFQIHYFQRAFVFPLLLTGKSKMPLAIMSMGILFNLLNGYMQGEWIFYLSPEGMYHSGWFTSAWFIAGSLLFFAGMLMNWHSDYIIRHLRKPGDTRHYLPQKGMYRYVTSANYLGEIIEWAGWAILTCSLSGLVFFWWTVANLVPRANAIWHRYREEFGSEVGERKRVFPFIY

Regulatory protein = molecular target: T2, Regulatory protein (Bacteroides thetaiotaomicron, UniProt Q8A576); experiment: as §1; format: ADME; parameters: dose 2 uM; details: 2 µM
T2 sequence (Q8A576 whole entry): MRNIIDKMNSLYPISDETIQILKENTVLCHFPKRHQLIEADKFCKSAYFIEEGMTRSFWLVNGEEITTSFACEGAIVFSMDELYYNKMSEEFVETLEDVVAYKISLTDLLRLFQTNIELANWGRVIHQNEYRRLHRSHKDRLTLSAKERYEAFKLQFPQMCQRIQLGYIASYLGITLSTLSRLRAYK

Acylhydrolase = molecular target: T3, Acylhydrolase (Bacteroides thetaiotaomicron, UniProt Q8AA96); experiment: as §1; format: ADME; parameters: dose 2 uM; details: 2 µM
T3 sequence (Q8AA96 whole entry): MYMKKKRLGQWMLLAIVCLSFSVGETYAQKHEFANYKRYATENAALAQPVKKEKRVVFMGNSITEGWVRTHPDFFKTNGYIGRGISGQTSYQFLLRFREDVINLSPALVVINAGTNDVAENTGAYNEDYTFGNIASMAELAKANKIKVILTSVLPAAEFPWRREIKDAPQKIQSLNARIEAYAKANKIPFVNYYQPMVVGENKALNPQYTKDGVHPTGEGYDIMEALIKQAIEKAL

[3] = molecular target: T4, NADH dehydrogenase/NAD(P)H nitroreductase (Bacteroides thetaiotaomicron, UniProt Q8A8L9); experiment: as §1; format: ADME; parameters: dose 2 uM; details: 2 µM
T4 sequence (Q8A8L9 whole entry): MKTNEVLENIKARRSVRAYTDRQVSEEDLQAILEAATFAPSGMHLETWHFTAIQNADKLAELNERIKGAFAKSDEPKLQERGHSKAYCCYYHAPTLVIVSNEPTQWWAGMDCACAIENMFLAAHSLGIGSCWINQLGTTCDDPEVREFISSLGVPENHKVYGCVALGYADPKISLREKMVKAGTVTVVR

General stress protein = General stress protein (Bacteroides thetaiotaomicron, UniProt Q8A7U5); experiment: as §1; format: ADME; parameters: dose 2 uM; details: 2 µM
[4] = molecular target: T5, Lipolytic enzyme, G-D-S-L family (Bacteroides thetaiotaomicron, UniProt Q8A0E6); experiment: as §1; format: ADME; parameters: dose 2 uM; details: 2 µM
T5 sequence (Q8A0E6 whole entry): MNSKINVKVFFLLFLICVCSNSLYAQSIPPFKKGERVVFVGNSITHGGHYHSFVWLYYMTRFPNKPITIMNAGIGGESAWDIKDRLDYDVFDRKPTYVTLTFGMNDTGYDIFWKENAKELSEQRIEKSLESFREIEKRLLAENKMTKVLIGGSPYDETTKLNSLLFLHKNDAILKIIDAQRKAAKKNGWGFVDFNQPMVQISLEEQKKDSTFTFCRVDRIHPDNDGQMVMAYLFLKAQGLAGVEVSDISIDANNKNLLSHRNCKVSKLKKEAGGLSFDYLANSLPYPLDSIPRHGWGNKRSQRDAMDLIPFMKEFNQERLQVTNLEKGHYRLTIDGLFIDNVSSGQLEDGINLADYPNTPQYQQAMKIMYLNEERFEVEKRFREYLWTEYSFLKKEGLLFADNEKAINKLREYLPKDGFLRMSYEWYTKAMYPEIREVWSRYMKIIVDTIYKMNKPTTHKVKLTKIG

[5] = molecular target: T6, Nitroreductase-like protein (Bacteroides thetaiotaomicron, UniProt Q8AB93); experiment: as §1; format: ADME; parameters: dose 2 uM; details: 2 µM
T6 sequence (Q8AB93 whole entry): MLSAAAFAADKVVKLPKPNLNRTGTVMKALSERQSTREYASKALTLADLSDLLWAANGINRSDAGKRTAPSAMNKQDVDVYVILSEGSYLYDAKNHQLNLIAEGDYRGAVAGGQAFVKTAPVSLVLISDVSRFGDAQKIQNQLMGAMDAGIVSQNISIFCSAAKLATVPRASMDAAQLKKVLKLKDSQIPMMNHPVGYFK

Nitroreductase = molecular target: T7, Nitroreductase (Bacteroides thetaiotaomicron, UniProt Q8A911); experiment: as §1; format: ADME; parameters: dose 2 uM; details: 2 µM
T7 sequence (Q8A911 whole entry): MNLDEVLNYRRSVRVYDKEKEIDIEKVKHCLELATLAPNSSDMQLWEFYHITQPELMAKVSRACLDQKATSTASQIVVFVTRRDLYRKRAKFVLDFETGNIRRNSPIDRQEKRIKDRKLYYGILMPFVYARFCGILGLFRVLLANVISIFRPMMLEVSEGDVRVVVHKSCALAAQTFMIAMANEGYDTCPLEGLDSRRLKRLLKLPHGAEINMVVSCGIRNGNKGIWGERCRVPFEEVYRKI

[6] = The drug is tested on Bacteroides dorei strain: DSM17855 for biotransformation. The drug concentrations were measured before and after a 12-h incubation by liquid-chromatography-coupled mass spectrometry (LC–MS); details: phocaeicola dorei, 2 µM
[7] = The drug is tested on Bacteroides caccae strain: ATCC43185 for biotransformation. The drug concentrations were measured before and after a 12-h incubation by liquid-chromatography-coupled mass spectrometry (LC–MS); details: 2 µM
[8] = The drug is tested on Ruminococcus lactaris strain: ATCC29176 for biotransformation. The drug concentrations were measured before and after a 12-h incubation by liquid-chromatography-coupled mass spectrometry (LC–MS); details: 2 µM
[9] = bacteroides thetaiotaomicron, 12 h, 2 µM
Description: The drug is tested on Bacteroides thetaiotaomicron strain: 3731 for biotransformation. The drug concentrations were measured before and after a 12-h incubation by liquid-chromatography-coupled mass spectrometry (LC–MS)

[10] = The drug is tested on Bifidobacterium ruminantium strain: fecal isolate for biotransformation. The drug concentrations were measured before and after a 12-h incubation by liquid-chromatography-coupled mass spectrometry (LC–MS); details: 2 µM
[11] = The drug is tested on Anaerotruncus colihominis strain: DSM17241 for biotransformation. The drug concentrations were measured before and after a 12-h incubation by liquid-chromatography-coupled mass spectrometry (LC–MS); details: 2 µM
[12] = The drug is tested on Enterococcus faecalis strain: V583 for biotransformation. The drug concentrations were measured before and after a 12-h incubation by liquid-chromatography-coupled mass spectrometry (LC–MS); details: 2 µM

Sequence of General stress protein (Q8A7U5 1-138, change not shown): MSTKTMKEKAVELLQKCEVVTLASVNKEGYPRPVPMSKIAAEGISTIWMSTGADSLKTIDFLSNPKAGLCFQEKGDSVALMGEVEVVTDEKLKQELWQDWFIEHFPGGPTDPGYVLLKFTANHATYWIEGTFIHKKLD

With C[C@@H]1CC[C@H]2[C@@H](C)C(=O)O[C@@H]3O[C@@]4(C)CC[C@@H]1[C@]32OO4 [ARTEMISININ] the “Bacterial Biotransformation” value [1] was “Compound metabolized”, the “Bacterial Biotransformation” value [2] was “Compound NOT metabolized” and the “Bacterial Biotransformation” value (Regulatory protein) was “Compound NOT metabolized”. For the same molecule, the “Bacterial Biotransformation” value (Acylhydrolase) was “Compound NOT metabolized”, the “Bacterial Biotransformation” value [3] was “Compound NOT metabolized” and the “Bacterial Biotransformation” value (General stress protein) was “Compound metabolized”. For the same molecule, the “Bacterial Biotransformation” value [4] was “Compound NOT metabolized”, the “Bacterial Biotransformation” value [5] was “Compound NOT metabolized” and the “Bacterial Biotransformation” value (Nitroreductase) was “Compound NOT metabolized”. The “Bacterial Biotransformation” value [6] was “Compound metabolized”, the “Bacterial Biotransformation” value [7] was “Compound metabolized” and the “Bacterial Biotransformation” value [8] was “Compound metabolized”. The “Bacterial Biotransformation” value [9] was “Compound metabolized”, the “Bacterial Biotransformation” value [10] was “Compound metabolized” and the “Bacterial Biotransformation” value [11] was “Compound metabolized”. For the same molecule, the “Bacterial Biotransformation” value [12] was “Compound metabolized”.
With CCN(CC)C(=O)/C(C#N)=C/c1cc(O)c(O)c([N+](=O)[O-])c1 [ENTACAPONE] the “Bacterial Biotransformation” value [2] was “Compound NOT metabolized”, the “Bacterial Biotransformation” value (Regulatory protein) was “Compound NOT metabolized” and the “Bacterial Biotransformation” value (Acylhydrolase) was “Compound NOT metabolized”. For the same molecule, the “Bacterial Biotransformation” value [3] was “Compound metabolized”, the “Bacterial Biotransformation” value (General stress protein) was “Compound NOT metabolized” and the “Bacterial Biotransformation” value [4] was “Compound NOT metabolized”. The “Bacterial Biotransformation” value [5] was “Compound metabolized”, the “Bacterial Biotransformation” value (Nitroreductase) was “Compound NOT metabolized” and the “Bacterial Biotransformation” value [6] was “Compound metabolized”. The “Bacterial Biotransformation” value [7] was “Compound metabolized”, the “Bacterial Biotransformation” value [8] was “Compound metabolized” and the “Bacterial Biotransformation” value [9] was “Compound metabolized”. For the same molecule, the “Bacterial Biotransformation” value [10] was “Compound metabolized”, the “Bacterial Biotransformation” value [11] was “Compound metabolized” and the “Bacterial Biotransformation” value [12] was “Compound metabolized”.
With COc1ccnc(C[S+]([O-])c2nc3ccc(OC(F)F)cc3[nH]2)c1OC (stereo unspecified) [PANTOPRAZOLE] the “Bacterial Biotransformation” value [2] was “Compound NOT metabolized”, the “Bacterial Biotransformation” value (Regulatory protein) was “Compound NOT metabolized” and the “Bacterial Biotransformation” value (Acylhydrolase) was “Compound NOT metabolized”. For the same molecule, the “Bacterial Biotransformation” value [3] was “Compound NOT metabolized”, the “Bacterial Biotransformation” value (General stress protein) was “Compound NOT metabolized” and the “Bacterial Biotransformation” value [4] was “Compound NOT metabolized”. For the same molecule, the “Bacterial Biotransformation” value [5] was “Compound NOT metabolized”, the “Bacterial Biotransformation” value (Nitroreductase) was “Compound NOT metabolized” and the “Bacterial Biotransformation” value [6] was “Compound metabolized”. For the same molecule, the “Bacterial Biotransformation” value [7] was “Compound metabolized”, the “Bacterial Biotransformation” value [8] was “Compound metabolized” and the “Bacterial Biotransformation” value [9] was “Compound metabolized”. The “Bacterial Biotransformation” value [10] was “Compound metabolized”, the “Bacterial Biotransformation” value [11] was “Compound metabolized” and the “Bacterial Biotransformation” value [12] was “Compound metabolized”.
With Nc1ccc(/N=N/c2ccccc2)c(N)n1 [PHENAZOPYRIDINE] the “Bacterial Biotransformation” value [2] was “Compound NOT metabolized”, the “Bacterial Biotransformation” value (Regulatory protein) was “Compound NOT metabolized” and the “Bacterial Biotransformation” value (Acylhydrolase) was “Compound NOT metabolized”. The “Bacterial Biotransformation” value [3] was “Compound NOT metabolized”, the “Bacterial Biotransformation” value (General stress protein) was “Compound metabolized” and the “Bacterial Biotransformation” value [4] was “Compound NOT metabolized”. For the same molecule, the “Bacterial Biotransformation” value [5] was “Compound NOT metabolized”, the “Bacterial Biotransformation” value (Nitroreductase) was “Compound NOT metabolized” and the “Bacterial Biotransformation” value [6] was “Compound metabolized”. For the same molecule, the “Bacterial Biotransformation” value [7] was “Compound metabolized”, the “Bacterial Biotransformation” value [8] was “Compound metabolized” and the “Bacterial Biotransformation” value [9] was “Compound metabolized”. The “Bacterial Biotransformation” value [10] was “Compound metabolized”, the “Bacterial Biotransformation” value [11] was “Compound metabolized” and the “Bacterial Biotransformation” value [12] was “Compound metabolized”.
For CCS(=O)(=O)CCn1c([N+](=O)[O-])cnc1C [TINIDAZOLE], the “Bacterial Biotransformation” value [2] was “Compound NOT metabolized”, the “Bacterial Biotransformation” value (Regulatory protein) was “Compound NOT metabolized” and the “Bacterial Biotransformation” value (Acylhydrolase) was “Compound NOT metabolized”. The “Bacterial Biotransformation” value [3] was “Compound metabolized”, the “Bacterial Biotransformation” value (General stress protein) was “Compound NOT metabolized” and the “Bacterial Biotransformation” value [4] was “Compound NOT metabolized”. The “Bacterial Biotransformation” value [5] was “Compound metabolized”, the “Bacterial Biotransformation” value (Nitroreductase) was “Compound metabolized” and the “Bacterial Biotransformation” value [6] was “Compound metabolized”. For the same molecule, the “Bacterial Biotransformation” value [7] was “Compound metabolized”, the “Bacterial Biotransformation” value [8] was “Compound metabolized” and the “Bacterial Biotransformation” value [9] was “Compound metabolized”. The “Bacterial Biotransformation” value [10] was “Compound metabolized”, the “Bacterial Biotransformation” value [11] was “Compound metabolized” and the “Bacterial Biotransformation” value [12] was “Compound metabolized”.
